Results on 15 molecules are retold here after patent publication US20180002366A1, “4'-SUBSTITUTED NUCLEOSIDE REVERSE TRANSCRIPTASE INHIBITORS” (MERCK SHARP & DOHME CORP., priority 2014, published 2018).

For orientation: IC50 means the midpoint of a concentration-inhibition curve.

For data set [1], the system named is HIV-1 (H9IIIB virus) replication in MT4-GFP cells. The experiment in a line: Antiviral Persistence assay. Particulars: for Fold shift IC50 72 h/24 h: ratio of IC50 72 h to IC50 24 h. The protocol:
HIV-1 replication was monitored using MT4-gag-GFP clone D3 (hereafter designate MT4-GFP), which are MT-4 cells modified to harbor a GFP reporter gene, the expression of which is dependent on the HIV-1 expressed proteins tat and rev. Productive infection of an MT4-GFP cell with HIV-1 results in GFP expression approximately 24 h post-infection. MT4-GFP cells were maintained at 37° C./5% CO2/90% relative humidity in RPMI 1640 supplemented with 10% fetal bovine serum, 100 U/mL penicillin/streptomycin, and 400 μg/mL G418 to maintain the reporter gene. For 72 hour time point persistence assay (72 h plate) and 24 hour time point control assay (24 h plate), MT4-GFP cells were washed and re-suspended in RPMI 1640 containing 10% normal human serum at either 1.6×10^5 or 2.4×10^5 cells/mL (10% NHS). Compound plates were prepared by dispensing compounds dissolved in DMSO into wells of 384 well cell culture plates ([…]) using an ECHO acoustic dispenser. Each compound was tested in a 10 point serial 3-fold dilution (typical final concentrations: 4.2 μM-0.21 nM). Controls included no inhibitor (DMSO only) and a combination of three antiviral agents (efavirenz, indinavir, and an integrase strand transfer inhibitor at final concentrations of 4 μM each). Cells were added (50 μL/well) to compound plates and were incubated at 37° C./5% CO2/90% relative humidity for 24 hours. The cells were washed with 5×40 uL of RPMI 1640 supplemented with 10% NHS and 100 U/mL penicillin/streptomycin. 72 h plate was return back to 37° C. incubator for additional 48 hour incubation. 40 uL of the cells from each well of the 24 h plate or the 72 h plate (after 48 hour incubation post wash) were transferred to a poly-D-lysine coated plate. The cells were then infected with H9IIIB virus at an approximate multiplicity of infection of 0.1 in the same incubation conditions.
Infected cells were quantified at ˜24 h post-infection, by counting the number of green cells in each well using an Acumen eX3 scanner. IC50s for the compounds in Table 4 were determined by non-linear 4-parameter curve fitting.
The antiviral persistence assay is meant to assess for the persistence of antiviral activity upon removal of the nucleoside. […] The publication AIDS Research and Therapy, 2009, 6:5, highlights the value of antiviral persistence.

Data set [2] has the same test system. Description: Viking Assay: antiviral potency in a multiple round HIV-1 infection assay. The note with it: Human immunodeficiency virus 1, 10% normal human serum, inhibition of reproductive ratio R0 between ~48 h and ~72 h post-infection, read-out: Viking, IC50 (10% NHS). In kind it is cell-based. The protocol: Assessing Antiviral Potency in a Multiple Round HIV-1 Infection Assay.
Cells were then washed and re-suspended in either RPMI 1640 containing 10% or 50% normal human serum at 1.6×10^5 cells/mL (10% or 50% NHS conditions) or in 100% normal human serum at 2×10^5 cells/mL (100% NHS conditions).
The increase in the number of green cells over ˜24 h period gives the reproductive ratio, R0, which is typically 5-15 and has been shown experimentally to be in logarithmic phase (data not shown). Inhibition of R0 is calculated for each well, and IC50s determined by non-linear 4-parameter curve fitting.

A further data set concerns the target T1, HIV-1 RT enzyme (Human immunodeficiency virus type 1 group M subtype B, UniProt P03366).
T1 construct: Full-length wild-type and 2 mutant RT proteins were expressed in Escherichia coli BL21(DE3) cells and purified; made in house; host or cells: Escherichia coli BL21(DE3)
The experiment in a line: RT Polymerase Assay. In kind it is biochemical. The method, then:
Full-length wild-type and 2 mutant RT proteins were expressed in Escherichia coli BL21(DE3) cells and purified. Briefly, the heterodimeric nucleic acid substrate used in the HIV-1 RT polymerase reactions was generated by annealing biotinylated DNA primer to a 500 nucleotide RNA template. The HIV-1 RT enzyme (final concentration of […]) was combined with an inhibitor compound or DMSO (10% DMSO in the final reaction mixture) in assay buffer (62.5 mM Tris-HCl, pH 7.8, 1.25 mM dithiothreitol, 7.5 mM MgCl2, 100 mM KCl, 0.03% CHAPS, 0.125 mM EGTA). This mixture was pre-incubated for 30 minutes at room temperature in microtiter plates. The polymerization reaction was initiated by the addition of template/primer substrate (final concentration: 16.6 nM) and dNTPs (final concentration: 2 μM dCTP, dGTP, dATP, and 66.6 nM Ru-dUTP). After 90 min of incubation at 37° C., reactions were quenched by the addition of EDTA (25 mM). The resulting mixture was incubated for an additional 5 minutes at room temperature followed by transferring the solution (50 μL) to blocked avidin plate from Meso Scale Discovery (MSD). The mixtures were incubated at room temperature for 60 min prior to the quantification of the reaction product via an ECL 6000 imager instrument.

Where [3] appears, read: Human immunodeficiency virus 1, 24 h, read-out: IC50 24 h (nM).
[4] abbreviates: Human immunodeficiency virus 1, read-out: IC50 72 h (nM).

In the case of `N#C[C@]1(CO)O[C@@H](n2ccc3c(N)ncnc32)C[C@@H]1O` [Example 10, (2R,3S,5R)-5-(4-amino-7H-pyrrolo[2,3-d]pyrimidin-7-yl)-3-hydroxy-2-(hydroxymethyl)tetrahydrofuran-2-carbonitrile], the IC50 in data set [1] (setting [3]) was 170 nM; in data set [1] (setting [4]), 1800 nM; in data set [2], 0.128 µM. The “Fold shift IC50 72 h/24 h” value in data set [1] came out at 10.5.

In the case of `C#C[C@]1(COP(=O)(O)OP(=O)(O)OP(=O)(O)O)O[C@@H](n2ccc3c(N)ncnc32)C[C@@H]1O` [Example 13, ammonium ((2R,3S,5R)-5-(4-amino-7H-pyrrolo[2,3-d]pyrimidin-7-yl)-2-ethynyl-3-hydroxytetrahydrofuran-2-yl)methyl triphosphate], at HIV-1 RT enzyme, the IC50 is 0.933 µM.

Consider `C#C[C@]1(COP(=O)(O)OP(=O)(O)OP(=O)(O)O)O[C@@H](c2cnn3c(N)ncnc23)C[C@@H]1O` [Example 20, ammonium ((2R,3S,5R)-5-(4-aminopyrazolo[1,5-a][1,3,5]triazin-8-yl)-2-ethynyl-3-hydroxytetrahydrofuran-2-yl)methyl triphosphate], for which the IC50 on HIV-1 RT enzyme turned out to be 1.29 µM.

Take `C#C[C@]1(CO)O[C@@H](n2cc(C)c3c(N)ncnc32)C[C@@H]1O` [Example 3, (2R,3S,5R)-5-(4-amino-5-methyl-7H-pyrrolo[2,3-d]pyrimidin-7-yl)-2-ethynyl-2-(hydroxymethyl)tetrahydrofuran-3-ol]: the IC50 in data set [1] (setting [3]) was found to be 470 nM; in data set [1] (setting [4]), 2500 nM; in data set [2], 0.485 µM. For the same molecule, the “Fold shift IC50 72 h/24 h” value in data set [1] is 5.3.

In the case of `C#C[C@]1(COP(=O)(O)OP(=O)(O)OP(=O)(O)O)O[C@@H](n2cc(C)c3c(N)ncnc32)C[C@@H]1O` [Example 15, ammonium (2R,3S,5R)-5-(4-amino-5-methyl-7H-pyrrolo[2,3-d]pyrimidin-7-yl)-2-ethynyl-3-hydroxytetrahydrofuran-2-yl)methyl triphosphate], the IC50 at HIV-1 RT enzyme turned out to be 6.24 µM.

In turn, `C#C[C@]1(COP(=O)(O)OP(=O)(O)OP(=O)(O)O)O[C@@H](c2cnc3c(N)ncnn23)C[C@@H]1O` [Example 21, ammonium ((2R,3S,5R)-5-(4-aminoimidazo[2,1-f][1,2,4]triazin-7-yl)-2-ethynyl-3-hydroxytetrahydrofuran-2-yl)methyl triphosphate] gave a half-inhibitory concentration (IC50) against HIV-1 RT enzyme of 0.905 µM.

On HIV-1 RT enzyme, `C#C[C@]1(COP(=O)(O)OP(=O)(O)OP(=O)(O)O)O[C@@H](n2ccc3c(N)nc(Cl)nc32)C[C@@H]1O` [Example 16, bis-triethylammonium ((2R,3S,5R)-5-(4-amino-2-chloro-7H-pyrrolo[2,3-d]pyrimidin-7-yl)-2-ethynyl-3-hydroxytetrahydrofuran-2-yl)methyl triphosphate] registered an IC50 of 1.82 µM.

Consider `C#C[C@]1(COP(=O)(O)OP(=O)(O)OP(=O)(O)O)O[C@@H](n2cc(Cl)c3c(N)ncnc32)C[C@@H]1O` [Example 17, ammonium ((2R,3S,5R)-5-(4-amino-5-chloro-7H-pyrrolo[2,3-d]pyrimidin-7-yl)-2-ethynyl-3-hydroxytetrahydrofuran-2-yl)methyl triphosphate], for which, at HIV-1 RT enzyme, the concentration for half-maximal inhibition (IC50) is 0.842 µM.

On HIV-1 RT enzyme, `C#C[C@]1(COP(=O)(O)OP(=O)(O)OP(=O)(O)O)O[C@@H](c2ccc3c(N)ncnn23)C[C@@H]1O` [Example 19, ammonium ((2R,3S,5R)-5-(4-aminopyrrolo[2,1-f][1,2,4]triazin-7-yl)-2-ethynyl-3-hydroxytetrahydrofuran-2-yl)methyl triphosphate] displayed an IC50 of 3.54 µM.

In the case of `C#C[C@]1(CO)O[C@@H](n2cc(Br)c3c(N)ncnc32)C[C@@H]1O` [Example 5, (2R,3S,5R)-5-(4-amino-5-bromo-7H-pyrrolo[2,3-d]pyrimidin-7-yl)-2-ethynyl-2-(hydroxymethyl)tetrahydrofuran-3-ol], the IC50 in data set [1] (setting [3]) was 22000 nM; in data set [1] (setting [4]) it was > 42000 nM; in data set [2], 0.209 µM. Besides, the “Fold shift IC50 72 h/24 h” value in data set [1] was >1.9.

For the molecule `C#C[C@]1(CO)O[C@@H](n2cc(Cl)c3c(N)ncnc32)C[C@@H]1O` [Example 6, (2R,3S,5R)-5-(4-amino-5-chloro-7H-pyrrolo[2,3-d]pyrimidin-7-yl)-2-ethynyl-2-(hydroxymethyl)tetrahydrofuran-3-ol], the IC50 in data set [1] (setting [3]) amounted to 99 nM; in data set [1] (setting [4]), 970 nM; in data set [2], 0.128 µM. Further, in data set [1], the “Fold shift IC50 72 h/24 h” value was 9.8.

For `Cc1cn([C@H]2C[C@H](N=[N+]=[N-])[C@@H](CO)O2)c(=O)[nH]c1=O` [AZT, 3′-azido-3′-deoxythymidine, reference compound], the half-maximal inhibitory concentration (IC50) in data set [1] (setting [3]) amounted to 37 nM; in data set [1] (setting [4]) it was 4710 nM; in data set [2] it was 0.037 µM. For the same molecule, the “Fold shift IC50 72 h/24 h” value in data set [1] is recorded as 127.

Regarding `C#C[C@]1(CO)O[C@@H](n2cc(I)c3c(N)ncnc32)C[C@@H]1O` [Example 7, (2R,3S,5R)-5-(4-amino-5-iodo-7H-pyrrolo[2,3-d]pyrimidin-7-yl)-2-ethynyl-2-(hydroxymethyl)tetrahydrofuran-3-ol], the values for the IC50 in data set [1] (setting [3]), in data set [1] (setting [4]) and in data set [2] were 17000 nM, 17000 nM and 1.03 µM, respectively. Besides, the “Fold shift IC50 72 h/24 h” value in data set [1] was 1.

Regarding `N#C[C@]1(COP(=O)(O)OP(=O)(O)OP(=O)(O)O)O[C@@H](n2ccc3c(N)ncnc32)C[C@@H]1O` [Example 18, bis-triethylammonium ((2R,3S,5R)-5-(4-amino-7H-pyrrolo[2,3-d]pyrimidin-7-yl)-2-cyano-3-hydroxytetrahydrofuran-2-yl)methyl triphosphate], it took 4.15 µM to reach half-maximal inhibition against HIV-1 RT enzyme (IC50).

On to `C#C[C@]1(COP(=O)(O)OP(=O)(O)OP(=O)(O)O)O[C@@H](n2cc(F)c3c(N)ncnc32)C[C@@H]1O` [Example 14, ammonium ((2R,3S,5R)-5-(4-amino-5-fluoro-7H-pyrrolo[2,3-d]pyrimidin-7-yl)-2-ethynyl-3-hydroxytetrahydrofuran-2-yl)methyl triphosphate], for which, on HIV-1 RT enzyme, the IC50 was 0.21 µM.
